Here are results for 28 molecules from publication PMC5259792, “A new serotonin 5-HT6 receptor antagonist with procognitive activity – Importance of a halogen bond interaction to stabilize the binding” (Scientific Reports, 2017).

One data set concerns the target human 5-HT6R (Homo sapiens, UniProt P50406). Briefly: 5-HT6R radioligand competitive binding assay ([3H]LSD).
The test system of data set [1] is rats (time-induced memory deficit). Briefly: Novel object recognition task (NORT). The data set is classed as in vivo, rat. To be noted: male Wistar rats, 60 min before each session.
Data set [2] in a line: Parallel artificial membrane permeability assay (PAMPA). It is filed as in vitro ADME. To be noted: PBS pH 7.4, 25 °C, read-out: permeability value (P).
A further data set has as its target T1, human 5-HT6R WT (Homo sapiens, UniProt P50406).
T1 construct: host or cells: HEK-293
Briefly: 5-HT6R AC assay (cAMP), wild type receptor. To be noted: for disappearance of the 5-HT induced response / functional character at the human 5-HT6R in the AC assay / increase in cAMP levels by ligand alone (agonist effect): HEK-293 cells expressing human 5-HT6R; for IC50: read-out: pIC50, inhibition of 5-HT-induced stimulation of cAMP (converted). It is filed as cell-based.

The target of the next data set is T2, 5-HT6R C110A (Homo sapiens, UniProt P50406, C110A).
T2 construct: host or cells: HEK-293
Briefly: 5-HT6R AC assay (cAMP), C110A mutant. The data set is classed as cell-based.

A further data set addresses T3, 5-HT6R S193A (Homo sapiens, UniProt P50406, S193A).
T3 construct: host or cells: HEK-293
Briefly: 5-HT6R AC assay (cAMP), S193A mutant. The data set is classed as cell-based.

The target of a further data set is T4, 5-HT6R F285A (Homo sapiens, UniProt P50406, F285A).
T4 construct: host or cells: HEK-293
Briefly: 5-HT6R AC assay (cAMP), F285A mutant. The data set is classed as cell-based.

The target of another data set is T5, 5-HT6R N288A (Homo sapiens, UniProt P50406, N288A).
T5 construct: host or cells: HEK-293
Briefly: 5-HT6R AC assay (cAMP), N288A mutant. It is filed as cell-based.

A short description of data set [3]: Metabolic stability in human liver microsomes. The data set is classed as in vitro ADME. To be noted: HLMs, compound at 5 μM. On the procedure: (§1) The high-affinity antagonist 7 was selected for the assessment of in vitro pharmacokinetic properties. Metabolic stability using rat and human liver microsomes (RLMs and HLMs, respectively) was determined as a measure of first-pass metabolism. Test compound was incubated at a concentration of 1 and 5 μM with RLM and HLM preparations, respectively. The half-life time (t1/2) was used to calculate the intrinsic clearance (CLint). […] An in vitro fluorescence-based inhibition assay was conducted with cytochrome P450 2D6 (CYP2D6), one of the most important enzymes involved in drug metabolism, using human recombinant microsomal CYP2D6 enzyme, AMMC {3-[2-(N,N-diethyl-N-methylamino)ethyl]-7-methoxy-4-methylcoumarin} as substrate, and quinidine as control inhibitor. After 30 min of incubation with compound 7 at a concentration of 10 μM, a remaining activity of 78% of the cytochrome was found.
(§2) RLM and HLM stability, HSA binding, and fluorescence-based CYP2D6 inhibition assays were performed according to previously reported procedures. Inhibition of hERG K^+ channel current was determined in an automated patch clamp assay using whole CHO-K1 cells at Eurofins Panlab (USA), according to previously published method.

A short description of data set [4]: Metabolic stability in rat liver microsomes. It is filed as in vitro ADME. As for the experimental part:
as §1, §2

The next data set concerns the target CYP2D6 (Homo sapiens, UniProt P10635). Briefly: Fluorescence-based CYP2D6 inhibition assay. It is filed as in vitro ADME. To be noted: human recombinant microsomal CYP2D6 enzyme, 30 min incubation, AMMC substrate, read-out: remaining activity of CYP2D6. On the procedure: as §1, §2
For data set [5], the target named is human serum albumin (HSA) (Homo sapiens, UniProt P02768). Briefly: HSA binding. It is filed as in vitro ADME. To be noted: 5 μM.
The target of another data set is T6, hERG K+ channel (Homo sapiens, UniProt Q12809).
T6 construct: host or cells: CHO-K1
Briefly: hERG whole-cell patch clamp assay. To be noted: CHO-K1 cells, n = 3, read-out: IC50, blockade of hERG K+ channel current. The data set is classed as cell-based.

For data set [6], the target named is T7, serotonin 5-HT2A receptor (Homo sapiens, UniProt P28223).
T7 construct: Eurofins Cerep (France)
Briefly: Selectivity panel radioligand binding, 5-HT2A. To be noted: [3H]ketanserin (0.5 nM), 60 min, RT, read-out: Inhibition (%) (displacement of radioligand).

In data set [7] the target is T8, serotonin 5-HT2B receptor (Homo sapiens, UniProt P41595).
T8 construct: Eurofins Cerep (France)
Briefly: Selectivity panel radioligand binding, 5-HT2B. To be noted: [3H]mesulergine, 60 min, RT, read-out: Inhibition (%) (displacement of radioligand).

The mark [8] stands for this setting: read-out: pIC50, inhibition of 5-HT-induced stimulation of cAMP (converted).

Entries after “also recorded” stand apart in the source; their conditions may differ.

T1 sequence (P50406 whole entry): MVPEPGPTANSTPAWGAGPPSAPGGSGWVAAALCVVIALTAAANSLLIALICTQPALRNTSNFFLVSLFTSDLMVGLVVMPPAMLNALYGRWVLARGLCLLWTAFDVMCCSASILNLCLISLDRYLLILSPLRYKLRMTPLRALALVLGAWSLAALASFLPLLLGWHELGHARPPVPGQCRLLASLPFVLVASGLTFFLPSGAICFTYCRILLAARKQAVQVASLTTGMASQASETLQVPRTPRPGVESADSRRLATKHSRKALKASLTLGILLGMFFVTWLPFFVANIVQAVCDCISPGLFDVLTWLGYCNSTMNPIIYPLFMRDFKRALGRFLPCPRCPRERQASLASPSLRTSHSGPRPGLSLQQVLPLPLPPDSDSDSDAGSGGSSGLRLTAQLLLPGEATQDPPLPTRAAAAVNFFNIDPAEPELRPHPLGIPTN
human 5-HT6R, sequence (P50406 whole entry): as above
T2 sequence (P50406 whole entry C110A): as the sequence (P50406 whole entry) above, with C110A counted along it
T4 sequence (P50406 whole entry F285A): as the sequence (P50406 whole entry) above, with F285A counted along it
T3 sequence (P50406 whole entry S193A): as the sequence (P50406 whole entry) above, with S193A counted along it
T5 sequence (P50406 whole entry N288A): as the sequence (P50406 whole entry) above, with N288A counted along it
T8 sequence (P41595 whole entry): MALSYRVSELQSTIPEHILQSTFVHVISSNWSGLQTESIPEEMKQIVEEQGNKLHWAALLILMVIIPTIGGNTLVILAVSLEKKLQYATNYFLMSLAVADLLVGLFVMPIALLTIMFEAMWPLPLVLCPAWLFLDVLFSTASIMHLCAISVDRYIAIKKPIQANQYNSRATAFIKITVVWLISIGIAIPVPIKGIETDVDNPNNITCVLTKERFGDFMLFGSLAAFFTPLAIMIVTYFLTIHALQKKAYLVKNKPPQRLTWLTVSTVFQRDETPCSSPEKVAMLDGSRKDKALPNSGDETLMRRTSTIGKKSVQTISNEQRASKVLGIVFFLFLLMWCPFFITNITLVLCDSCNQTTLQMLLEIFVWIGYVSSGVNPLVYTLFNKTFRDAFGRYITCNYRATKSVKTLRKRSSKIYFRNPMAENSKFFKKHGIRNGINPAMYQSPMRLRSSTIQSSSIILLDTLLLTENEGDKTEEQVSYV
CYP2D6, sequence (P10635 whole entry): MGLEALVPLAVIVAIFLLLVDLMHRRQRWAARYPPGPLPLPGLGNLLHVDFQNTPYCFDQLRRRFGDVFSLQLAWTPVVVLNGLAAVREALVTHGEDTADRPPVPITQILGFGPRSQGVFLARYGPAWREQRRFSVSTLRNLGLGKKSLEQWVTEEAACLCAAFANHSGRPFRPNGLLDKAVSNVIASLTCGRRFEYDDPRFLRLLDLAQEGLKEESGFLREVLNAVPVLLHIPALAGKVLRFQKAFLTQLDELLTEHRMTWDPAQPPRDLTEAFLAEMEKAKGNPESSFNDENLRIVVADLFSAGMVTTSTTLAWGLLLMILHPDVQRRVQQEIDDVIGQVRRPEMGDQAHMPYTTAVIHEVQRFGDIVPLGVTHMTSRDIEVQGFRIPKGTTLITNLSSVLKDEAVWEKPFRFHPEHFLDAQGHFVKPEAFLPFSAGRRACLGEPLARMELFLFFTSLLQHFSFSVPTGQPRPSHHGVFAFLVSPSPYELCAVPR
T6 sequence (Q12809 whole entry): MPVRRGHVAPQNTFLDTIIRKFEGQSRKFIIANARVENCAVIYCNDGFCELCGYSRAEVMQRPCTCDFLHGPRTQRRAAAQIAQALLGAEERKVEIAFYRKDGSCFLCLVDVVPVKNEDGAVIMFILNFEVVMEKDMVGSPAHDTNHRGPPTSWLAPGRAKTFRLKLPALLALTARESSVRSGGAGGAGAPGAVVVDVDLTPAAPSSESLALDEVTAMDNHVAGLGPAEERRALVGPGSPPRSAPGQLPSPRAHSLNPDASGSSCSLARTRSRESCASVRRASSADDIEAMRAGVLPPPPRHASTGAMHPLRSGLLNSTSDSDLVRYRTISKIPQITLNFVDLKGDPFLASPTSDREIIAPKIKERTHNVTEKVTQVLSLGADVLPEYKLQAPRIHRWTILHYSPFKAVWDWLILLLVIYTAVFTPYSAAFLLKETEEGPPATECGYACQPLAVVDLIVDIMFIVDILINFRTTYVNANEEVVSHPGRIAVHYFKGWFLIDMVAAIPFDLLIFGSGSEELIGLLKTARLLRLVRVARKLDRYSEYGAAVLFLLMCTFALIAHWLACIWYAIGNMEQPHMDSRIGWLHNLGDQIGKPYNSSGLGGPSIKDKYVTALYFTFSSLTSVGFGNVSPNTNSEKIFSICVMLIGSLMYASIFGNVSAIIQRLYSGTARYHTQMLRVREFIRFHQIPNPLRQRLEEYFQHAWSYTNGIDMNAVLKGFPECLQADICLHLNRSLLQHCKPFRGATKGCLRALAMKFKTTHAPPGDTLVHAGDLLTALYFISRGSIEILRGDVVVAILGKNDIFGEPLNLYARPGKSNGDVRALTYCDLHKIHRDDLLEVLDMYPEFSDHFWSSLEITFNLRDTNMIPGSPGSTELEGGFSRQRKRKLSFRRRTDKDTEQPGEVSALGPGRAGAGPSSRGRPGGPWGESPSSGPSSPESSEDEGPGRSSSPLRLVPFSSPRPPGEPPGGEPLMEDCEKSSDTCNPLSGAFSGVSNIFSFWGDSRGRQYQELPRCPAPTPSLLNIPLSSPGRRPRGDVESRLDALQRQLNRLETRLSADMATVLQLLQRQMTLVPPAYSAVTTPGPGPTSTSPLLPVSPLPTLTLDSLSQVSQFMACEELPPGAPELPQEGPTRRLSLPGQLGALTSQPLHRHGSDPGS
T7 sequence (P28223 whole entry): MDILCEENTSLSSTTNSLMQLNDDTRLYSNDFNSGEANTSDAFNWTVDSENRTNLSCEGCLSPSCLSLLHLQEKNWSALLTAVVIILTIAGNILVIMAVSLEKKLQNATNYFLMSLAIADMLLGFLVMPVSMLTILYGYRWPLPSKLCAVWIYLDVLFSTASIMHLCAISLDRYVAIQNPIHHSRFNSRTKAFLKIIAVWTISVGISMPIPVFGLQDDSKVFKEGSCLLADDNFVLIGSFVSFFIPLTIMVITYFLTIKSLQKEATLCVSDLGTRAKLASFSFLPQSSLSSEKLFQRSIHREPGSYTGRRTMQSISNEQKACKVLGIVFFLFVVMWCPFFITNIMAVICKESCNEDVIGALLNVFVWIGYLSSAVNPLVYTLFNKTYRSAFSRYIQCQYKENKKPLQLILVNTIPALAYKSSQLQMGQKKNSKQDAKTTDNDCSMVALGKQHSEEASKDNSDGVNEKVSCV
human serum albumin (HSA), sequence (P02768 25-609): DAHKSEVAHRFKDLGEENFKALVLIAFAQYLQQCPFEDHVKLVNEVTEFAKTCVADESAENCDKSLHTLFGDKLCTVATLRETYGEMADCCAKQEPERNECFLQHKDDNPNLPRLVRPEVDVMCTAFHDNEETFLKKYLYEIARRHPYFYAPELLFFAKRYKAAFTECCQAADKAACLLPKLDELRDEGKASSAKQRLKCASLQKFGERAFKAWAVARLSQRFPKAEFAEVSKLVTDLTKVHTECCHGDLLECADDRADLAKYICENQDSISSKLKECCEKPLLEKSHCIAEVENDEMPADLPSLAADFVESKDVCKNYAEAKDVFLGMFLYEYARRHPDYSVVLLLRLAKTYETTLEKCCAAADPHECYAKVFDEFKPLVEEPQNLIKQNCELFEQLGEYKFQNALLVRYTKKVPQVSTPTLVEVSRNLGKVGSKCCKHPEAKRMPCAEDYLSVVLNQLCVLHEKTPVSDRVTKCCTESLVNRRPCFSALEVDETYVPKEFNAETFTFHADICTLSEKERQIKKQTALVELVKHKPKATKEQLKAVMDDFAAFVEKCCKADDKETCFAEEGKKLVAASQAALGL

In the case of `Cc1c(S(=O)(=O)Nc2ccc3ncn(CCN(C)C)c3c2)sc2ccc(Br)cc12` [Compound 17], the inhibitory constant (Ki) at human 5-HT6R was 37 nM.

Take `CN(C)CCn1cnc2ccc(NS(=O)(=O)c3ccccc3)cc21` [Compound 4]: the melting point is 138 to 140 °C. Further, affinity at human 5-HT6R was put at a Ki of 200 ± 10 nM.

For the molecule `Nc1c2c(nc3ccccc13)CCCC2` [tacrine, reference compound], the “effect on time-induced memory deficit in NORT (exploration of novel vs familiar object)” value in data set [1] (0.5 mg/kg, po) is “animals spent more time exploring the novel object than the familiar one”.

For `CC(C)NCC(O)COc1cccc2ccccc12` (centres unmarked) [propranolol, reference compound], the Papp at 5 h, 200 μM in data set [2] came to 25 ×10⁻⁶ cm/s.

Molecule `Cc1c(S(=O)(=O)Nc2ccc3ncn(CCN(C)C)c3c2)sc2ccc(Cl)cc12` [Compound 10] displayed a melting point of 114 to 115 °C. Further, at human 5-HT6R WT, the “disappearance of the 5-HT induced response” value is at least 95%, the “functional character at the human 5-HT6R in the AC assay” value was “antagonists”, the “increase in cAMP levels by ligand alone (agonist effect)” value is “did not induce a substantial increase in cAMP levels” and the IC50 is 50.1 nM. The molecule further displayed an inhibitory constant (Ki) on human 5-HT6R of 25 nM.

`CN(C)CCn1cnc2cc(NC(=O)c3ccccc3)ccc21` [Compound S8]: the melting point is 113 to 115 °C. Moreover, the Ki at human 5-HT6R is above 500 nM.

The molecule `CN(C)CCn1cnc2ccc(NC(=O)c3ccccc3)cc21` [Compound S9] yielded a melting point of 115 to 117 °C. At human 5-HT6R, the Ki is above 500 nM.

`Cc1c(S(=O)(=O)Nc2cccc3c2ncn3CCN(C)C)sc2ccc(Cl)cc12` [Compound 8] displayed a melting point of 90 to 93 °C. Also, the inhibitory constant (Ki) at human 5-HT6R was 89 nM.

For the molecule `CN(C)CCn1cnc2cccc(NS(=O)(=O)c3ccccc3)c21` [Compound S11], the melting point fell in the range of 142 to 145 °C. The inhibition constant Ki on human 5-HT6R is above 500 nM.

On human 5-HT6R, `CN(C)CCn1cnc2ccc(NS(=O)(=O)c3ccc4c(Br)cccc4c3)cc21` [Compound 16] displayed a Ki of 12 nM.

As for `CN(C)CCn1cnc2c(NS(=O)(=O)c3ccc4c(Cl)cccc4c3)cccc21` [Compound 5], the melting point is 76 to 78 °C. Besides, at human 5-HT6R, the inhibition constant (Ki) came to 64 nM.

As to `CN(C)CCCn1cnc2c(C(=O)Nc3ccccc3)cccc21` [Compound S1], the melting point fell in the range of 104 to 106 °C. For the same molecule, the inhibition constant Ki at human 5-HT6R is above 500 nM.

Take `CN(C)CCn1cnc2ccc(NS(=O)(=O)c3c(Cl)nc4sccn34)cc21` [Compound 13]: the melting point is 139 to 141 °C. The Ki on human 5-HT6R was found to be 182 ± 6 nM.

Regarding `Cc1c(S(=O)(=O)Nc2ccc3c(c2)ncn3CCN(C)C)sc2ccc(Cl)cc12` [Compound 9], the melting point was 90 to 93 °C. In addition, the affinity on human 5-HT6R corresponds to a Ki of 245 nM.

Turning to `CN(C)CCn1cnc2cccc(NC(=O)c3ccccc3)c21` [Compound S10], the melting point lay within 98 to 101 °C. Also, the Ki at human 5-HT6R was above 500 nM.

For the molecule `CN(C)CCn1cnc2ccc(NS(=O)(=O)c3ccc4c(Cl)cccc4c3)cc21` [Compound 7, 5-Chloro-N-{1-[2-(dimethylamino)ethyl]-1H-benzimidazol-6-yl}naphthalene-2-sulfonamide], the “disappearance of the 5-HT induced response” value on human 5-HT6R WT is at least 95%. Besides, the “functional character at the human 5-HT6R in the AC assay” value on human 5-HT6R WT is on record as “antagonists”. Moreover, the “increase in cAMP levels by ligand alone (agonist effect)” value at human 5-HT6R WT was “did not induce a substantial increase in cAMP levels”. The IC50 on human 5-HT6R WT is 15.8 nM; on 5-HT6R C110A (setting [8]), 158 nM; on 5-HT6R S193A (setting [8]), 1260 nM; at 5-HT6R F285A (setting [8]), around 31600 nM; on 5-HT6R N288A (setting [8]) it was 126 nM; on hERG K+ channel, above 10000 nM. For the same molecule, in data set [3] (calculated from t1/2, read-out: intrinsic clearance (CLint)), the CLint scaled at 5 μM was 8 mL/min/kg. The half-life at 5 μM in data set [3] (read-out: half-life time (t1/2)) worked out at 77.5 min. In addition, in data set [4] (RLMs, compound at 1 μM, read-out: half-life time (t1/2)), the half-life at 1 μM turned out to be 20.7 min. For the same molecule, the CLint scaled at 1 μM in [4] (read-out: intrinsic clearance (CLint)) was 67.8 mL/min/kg. For the same molecule, on CYP2D6, the activity at 30 min, 10 µM was 78%. The “binding to HSA” value in data set [5] is 70%. In addition, the Papp at 5 h, 200 μM in data set [2] was found to be 12 ×10⁻⁶ cm/s. The figures for the inhibition at 1 µM in [6] and in data set [7] were below 23% and 16%, respectively. Also, the “effect on time-induced memory deficit in NORT (exploration of novel vs familiar object)” value in [1] (1 mg/kg, ip, 1 mg/kg) is listed as “in vivo procognitive activity; also recorded: animals spent more time exploring the novel object than the familiar one; also recorded: significant reversal of the time-delay induced memory deficit”. Further, on human 5-HT6R, the Ki is 9 nM.

Turning to `CN(C)CCn1cnc2c(NS(=O)(=O)c3c(Cl)nc4sccn34)cccc21` [Compound 11], the melting point lay within 71 to 74 °C. Besides, the inhibition constant (Ki) on human 5-HT6R was 200 ± 13 nM.

`CN(C)CCn1cnc2cc(NS(=O)(=O)c3ccccc3)ccc21` [Compound 3] came in with a melting point of 178 to 180 °C. On human 5-HT6R, this molecule showed a Ki of 213 ± 8 nM.

The molecule `CN(C)CCn1cnc2ccc(NS(=O)(=O)c3ccc4ccccc4c3)cc21` [Compound 18] showed a melting point of 207 to 208 °C. On human 5-HT6R, this molecule yielded a Ki of 144 nM.

`CN(C)CCn1cnc2c(NS(=O)(=O)c3ccccc3)cccc21` [Compound 2] yielded a melting point of 121 to 123 °C. This molecule also registered an inhibition constant (Ki) at human 5-HT6R of 243 ± 15 nM.

Consider `NCCc1c[nH]c2ccc(O)cc12` [Compound 5-HT, 5-HT], for which the “cAMP release (5-HT) Efficacy” value on human 5-HT6R WT (5-HT6R WT), on 5-HT6R C110A (5-HT6R C110A), on 5-HT6R S193A (5-HT6R S193A), on 5-HT6R F285A (5-HT6R F285A) and on 5-HT6R N288A (5-HT6R N288A) was “agonist” throughout.

For the molecule `CN(C)CCn1cnc2ccc(NS(=O)(=O)c3cccc4c(Cl)cccc34)cc21` [Compound 15], the melting point was 223 °C (dec.). The molecule further yielded an inhibition constant (Ki) at human 5-HT6R of 238 nM.

Consider `Cc1c(S(=O)(=O)Nc2ccc3ncn(CCN(C)C)c3c2)sc2ccccc12` [Compound 19], for which the melting point was in the range of 175 to 176 °C. The Ki on human 5-HT6R came to 195 nM.

Regarding `CN(C)CCn1cnc2ccc(NS(=O)(=O)c3ccc4cc(Cl)ccc4c3)cc21` [Compound 14], the melting point was 181 °C (dec.). On human 5-HT6R, this molecule yielded an inhibition constant Ki above 500 nM.

`CN(C)CCn1cnc2cc(NS(=O)(=O)c3ccc4c(Cl)cccc4c3)ccc21` [Compound 6] yielded a melting point of 92 to 95 °C. The same molecule showed an inhibitory constant (Ki) on human 5-HT6R of 112 nM.

Take `CN(C)CCn1cnc2cc(NS(=O)(=O)c3c(Cl)nc4sccn34)ccc21` [Compound 12]: the melting point was in the range of 99 to 101 °C. For the same molecule, at human 5-HT6R, the affinity corresponds to a Ki of 33 ± 3 nM.

`CN(C)CCCn1cnc2cc(C(=O)Nc3ccccc3)ccc21` [Compound S2] returned a melting point of 108 to 110 °C. At human 5-HT6R, the Ki was above 500 nM.

`CN(C)CCn1cnc2c(NC(=O)c3ccccc3)cccc21` [Compound S7] returned a melting point of 109 to 112 °C. This molecule displayed a Ki at human 5-HT6R above 500 nM.
